Results taken from patent publication US9670219B2, “Tetrahydrooxepinopyridine compound” (ASTELLAS PHARMA INC., priority 2015, dated 2017).
Counter-ions that a name gives are not always drawn.

Columns and labels:
human α7 nACh receptor [1] = target: T1, human α7 nACh receptor (Homo sapiens, UniProt P36544); test: Electrophysiological evaluation for human α7 nACh receptor (Qpatch HTX or Qube current response); assay type: cell-based; design: key: positive: an inward current response specific to a human α7 nACh receptor was obtained when 3 μM of a test drug had been added; negative: a specific current response was not observed; conditions: 3 μM test drug added simultaneously with 100 μM AChCl; voltage-clamped at −90 mV
T1 construct: expressed in transfected cells; host or cells: HEK293 cells (ATCC CRL-1573), transient co-transfection by electroporation with rat RIC3 (NM_001115045.3)
T1 sequence (P36544 23-502): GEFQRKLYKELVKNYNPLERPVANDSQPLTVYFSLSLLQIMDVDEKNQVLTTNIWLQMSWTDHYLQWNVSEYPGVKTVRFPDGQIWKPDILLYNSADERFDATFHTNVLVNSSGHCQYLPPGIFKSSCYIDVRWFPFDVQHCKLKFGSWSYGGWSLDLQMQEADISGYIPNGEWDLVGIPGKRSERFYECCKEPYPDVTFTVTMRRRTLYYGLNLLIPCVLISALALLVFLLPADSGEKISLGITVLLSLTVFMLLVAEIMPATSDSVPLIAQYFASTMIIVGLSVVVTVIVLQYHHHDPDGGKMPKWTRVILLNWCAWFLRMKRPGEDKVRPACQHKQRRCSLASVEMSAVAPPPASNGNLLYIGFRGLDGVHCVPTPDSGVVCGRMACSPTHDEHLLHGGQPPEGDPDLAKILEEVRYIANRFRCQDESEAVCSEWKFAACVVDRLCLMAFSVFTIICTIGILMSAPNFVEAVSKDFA
Procedure: The PAM activity of a test drug was evaluated by a current response in the presence of an α7 nACh receptor agonist Acetylcholine chloride (Sigma) (hereinafter, also referred to as AChCl) using Qpatch HTX (Biolin Scientific) or Qube (Biolin Scientific). This test cannot detect a small current response of AChCl alone. The current response can be detected only in the case where the test drug has a PAM activity.
Extracellular fluid (pH 7.4): NaCl 145 mM, KCl 4 mM, HEPES 10 mM, CaCl2 2 mM, MgCl2 1 mM.
Intracellular fluid (pH 7.2): KF 120 mM, KCl 20 mM, EGTA 0.1 mM, HEPES 10 mM, MgCl2 2 mM.
The cells were obtained in the same manner as in Test Example 1.
The response of a human α7 nACh receptor with the addition of a test drug was measured by the following experiment. Transient expression cells obtained by the method described above were subjected to the experiment after allowing to stand overnight at 37° C. The test drug was dissolved in DMSO, and then made to a final concentration of 3 μM using extracellular fluid. The agonist AChCl was made to a final concentration of 100 μM. The membrane potential was voltage-clamped at −90 mV. The current response was measured by multi-hole mode at the time of simultaneous addition of the test drug and AChCl to the cells, using QPatch HTX or Qube.
As a result of the tests above, the case where an inward current response specific to a human α7 nACh receptor was obtained when 3 μM of a test drug had been added was determined as positive, and the case where a specific current response was not observed was determined as negative. It should be noted that, when the agonist concentration is 0, the current response was not observed even with the addition of a test drug.

human α7 nACh receptor [2] = target: T1, human α7 nACh receptor; test: Evaluation for human α7 nACh receptor using FLIPR (intracellular calcium response, PAM activity); assay type: cell-based; conditions: for Max: maximum response of test drug with agonist PNU-282987, relative to maximum response of PNU-120596 = 100%; for EC20: test drug concentration giving 20% response, maximum response of PNU-120596 with agonist PNU-282987 (0.6 μM) = 100%, HEK293 cells co-expressing human α7 nACh receptor/rat RIC3
Procedure: Assay buffer: HBSS buffer containing 1.25 mM probenecid.
The PAM activity of a test drug was evaluated in terms of Ca^2+ dye-based fluorescence intensity for an intracellular calcium response in the presence of an α7 nACh receptor-selective agonist PNU-282987 (CAS registry number: 123464-89-1, Tocris) using a FLIPR tetra (Molecular Devices).
In the case where a concentration-response curve has been obtained in which the logarithm of a concentration of a test drug is on the abscissa and the ratio of a response (hereinafter, also referred to as calcium response) is on the ordinate, this test drug has been determined to have a PAM activity.
In this test, the agonist (PNU-282987) elicited a calcium response only in the presence of PAM (PNU-120596).
The coding sequence of a human α7 nACh receptor (accession number: NM_000746.5) was subcloned into a pCEP4 vector (Life Technologies). The coding sequence of a rat chaperone protein RIC3 (accession number: NM_001115045.3) was subcloned into a pcDNA3.1/Hygro (+) vector (Life Technologies). The resulting constructs were transfected into HEK293 cells (ATCC number: CRL-1573) by an electroporation method using Neon (Life Technologies).
The transiently expressing cells obtained in the manner described above were seeded at a density of 8×10^3 cells/well onto a 384-well plate (Becton Dickinson) and allowed to stand overnight at 37° C. DMEM+10% FBS was used as a medium.
On the next day, the medium was removed, and Fluo4-AM (Dojindo) prepared using an assay buffer was applied, followed by allowing to stand for 1 hour. The test drug was dissolved in DMSO and then made to a final concentration of 0.03 to 100 μM (3-fold dilutions) with an assay buffer. Similarly, PNU-120596 which is a known PAM was made to a final concentration of 0.003 to 10 μM (3-fold dilutions). PNU-282987 which is an agonist was made to a final concentration of 0.6 μM. Thereafter, the test drug was applied to the cells using a FLIPR tetra, the agonist (PNU-282987) was added 5 minutes later, and the fluorescence intensity at that time was detected.
As a control, using (1) a group with neither addition of a test drug, PAM (PNU-120596) nor that of agonist (PNU-282987), the response thereof was set to 0%. Using (2) a group with the addition of PAM (PNU-120596) and agonist (PNU-282987), the maximum response thereof was set to 100%.
To quantitatively compare the PAM activity of the test drug, an EC20 value and a Max value were used as activity indicators. […] The EC20 value was calculated using a non-linear regression analysis from the concentration-response curve of a human α7 nACh receptor with the addition of a test drug. The Max value refers to a maximum response value. The Max value is expressed in terms of % value of the maximum response of a test drug in the presence of an agonist (PNU-282987) relative to when the maximum response of PAM (PNU-120596) in the presence of an agonist (PNU-282987) is set to 100%.

Dat. 1 (Determination) (human α7 nACh receptor [1])	Max (human α7 nACh receptor [2]) [%]	EC20 (human α7 nACh receptor [2]) [nM]	SMILES	also measured
positive			Cc1ncc(NC(=O)c2cc(N3CCC[C@@H]3C)nc3c2CCOCC3)nc1C [Ex 55]	
positive			O=C(Nc1ccc(Cl)cn1)c1cc(N2CCC(F)CC2)nc2c1CCOCC2 [Ex 51, N-(5-chloropyridin-2-yl)-2-(4-fluoropiperidin-1-yl)-5,6,8,9-tetrahydrooxepino[4,5-b]pyridine-4-carboxamide]	
positive			O=C(Nc1cccnn1)c1cc(N2CCC(F)CC2)nc2c1CCOCC2 [Ex 50]	
positive			C[C@H]1CCCCN1c1cc(C(=O)Nc2cnccn2)c2c(n1)CCOCC2 [Ex 70, 2-[(2S)-2-methylpiperidin-1-yl]-N-(pyrazin-2-yl)-5,6,8,9-tetrahydrooxepino[4,5-b]pyridine-4-carboxamide hydrochloride]	
positive			C[C@H]1CCCCN1c1cc(C(=O)Nc2cccnn2)c2c(n1)CCOCC2 [Ex 69, 2-[(2S)-2-methylpiperidin-1-yl]-N-(pyridazin-3-yl)-5,6,8,9-tetrahydrooxepino[4,5-b]pyridine-4-carboxamide hydrochloride]	

More lines, now with the values behind:

SMILES	Dat. 1 (Determination) (human α7 nACh receptor [1])	Max (human α7 nACh receptor [2]) [%]	EC20 (human α7 nACh receptor [2]) [nM]	also measured
C[C@@H]1CN(c2cc(C(=O)Nc3ccc(Cl)cn3)c3c(n2)CCOCC3)C[C@H](C)O1 [Ex 18, N-(5-chloropyridin-2-yl)-2-[(2R,6S)-2,6-dimethylmorpholin-4-yl]-5,6,8,9-tetrahydrooxepino[4,5-b]pyridine-4-carboxamide hydrochloride]	positive	79.2	1020	
O=C(Nc1ccc(Cl)cn1)c1cc(N2CCC[C@H](F)C2)nc2c1CCOCC2 [Ex 76, N-(5-chloropyridin-2-yl)-2-[(3S)-3-fluoropiperidin-1-yl]-5,6,8,9-tetrahydrooxepino[4,5-b]pyridine-4-carboxamide benzenesulfonate]	positive			
CO[C@H]1CCN(c2cc(C(=O)Nc3cccc(C#N)c3)c3c(n2)CCOCC3)C1 [Ex 48, N-(3-cyanophenyl)-2-[(3S)-3-methoxypyrrolidin-1-yl]-5,6,8,9-tetrahydrooxepino[4,5-b]pyridine-4-carboxamide hydrochloride]	positive			
O=C(Nc1cccnn1)c1cc(N2CCC[C@H](C(F)(F)F)C2)nc2c1CCOCC2 [Ex 1, N-(pyridazin-3-yl)-2-[(3S)-3-(trifluoromethyl)piperidin-1-yl]-5,6,8,9-tetrahydrooxepino[4,5-b]pyridine-4-carboxamide fumarate]		99.8	2720	
COc1ccc(NC(=O)c2cc(N3CCC[C@H]3C)nc3c2CCOCC3)nn1 [Ex 36]	positive			
O=C(N[C@H]1CN2CCC1CC2)c1ccc(Cl)cc1 [PNU-282987, N-(3R)-1-azabicyclo[2.2.2]octo-3-yl-4-chlorobenz amide, reference compound]				calcium response, substance alone (human α7 nACh receptor [2]; agonist alone or test compound alone): not elicited
Cc1cncc(NC(=O)c2cc(N3CCC[C@@H]3C)nc3c2CCOCC3)n1 [Ex 40, N-(6-methylpyrazin-2-yl)-2-[(2S)-2-methylpyrrolidin-1-yl]-5,6,8,9-tetrahydrooxepino[4,5-b]pyridine-4-carboxamide hydrochloride]	positive			
CC1(C)CN(c2cc(C(=O)Nc3cccnn3)c3c(n2)CCOCC3)CC(C)(C)O1 [Ex 9, N-(pyridazin-3-yl)-2-(2,2,6,6-tetramethylmorpholin-4-yl)-5,6,8,9-tetrahydrooxepino[4,5-b]pyridine-4-carboxamide hydrochloride]		69.3	3520	
O=C(Nc1cccnn1)c1cc(N2CCC[C@@H](C(F)(F)F)C2)nc2c1CCOCC2 [Ex 7, N-(pyridazin-3-yl)-2-[(3R)-3-(trifluoromethyl)piperidin-1-yl]-5,6,8,9-tetrahydrooxepino[4,5-b]pyridine-4-carboxamide fumarate]		94.8	512	
Cc1ncc(NC(=O)c2cc(N3CCC[C@H]3C)nc3c2CCOCC3)nc1C [Ex 46]	positive			
C[C@@H]1CN(c2cc(C(=O)Nc3ccc(F)cn3)c3c(n2)CCOCC3)C[C@H](C)O1 [Ex 12, 2-[(2R,6S)-2,6-dimethylmorpholin-4-yl]-N-(5-fluoropyridin-2-yl)-5,6,8,9-tetrahydrooxepino[4,5-b]pyridine-4-carboxamide]		96.9	4350	
